Results reported in paper PMC7225226, “Fluorescence labeling of a NaV1.7-targeted peptide for near-infrared nerve visualization” (EJNMMI Research, 2020).
Values joined by “and” are separate entries in the source; they are usually repeats but may differ in a detail not shown here. Equal values may be shown once.

How the values were obtained:
[1] = biological target: T1, hNaV1.4 (Homo sapiens, UniProt P35499); assay: Whole-cell patch-clamp, HEK293 cells stably expressing hNaV1.4; assay type: cell-based
T1 construct: host or cells: HEK293
Procedure: (§1) HEK293 cells stably expressing the human NaV channel β1 subunit (hNaVβ1) in combination with the α subunit hNaV1.1, hNaV1.2, hNaV1.3, hNaV1.4, hNaV1.5, hNaV1.6, or hNaV1.7 (Scottish Biomedical, Glasgow, UK) were cultured in DMEM/F-12 media (1:1), supplemented with 10% fetal bovine serum, […] geneticin, and […] non-essential amino acids (all reagents from Invitrogen) at 37 °C and in 5% CO2.
(§2) Whole-cell patch-clamp experiments were performed at room temperature using a QPatch 16x automated electrophysiology platform (Sophion Bioscience, Denmark) using 16-channel planar patch-chip plates (QPlates) with a patch-hole diameter of 1 μm and resistance of 2 MΩ. Whole-cell currents were filtered at 5 kHz (8-pole Bessel) and digitized at 25 kHz. A P4 online leak-subtraction protocol was used with non-leak-subtracted currents acquired in parallel. The extracellular solution was 2 mM CaCl2, 1 mM MgCl2, 10 mM HEPES, 4 mM KCl, and 145 mM NaCl at pH 7.4, and the intracellular solution was 140 mM CsF, 1 mM/5 mM EGTA/CsOH, 10 mM HEPES, and 10 mM NaCl at pH 7.3. Hs1a-FL were dissolved in extracellular solution with 0.1% bovine serum albumin (BSA). Concentration-response data were obtained using five concentrations of peptide (2 nM to 10 μM). […] IC50 values were determined from non-linear regression of concentration-response data using GraphPad Prism.

[2] = system: neuronal sodium channels; assay: Affinity for neuronal sodium channels (summary statement); assay type: cell-based, human; conditions: automated patch-clamp, HEK293 cells
Procedure: as §1, §2

[3] = biological target: T2, hNaV1.5 (Homo sapiens, UniProt Q14524); assay: Whole-cell patch-clamp, HEK293 cells stably expressing hNaV1.5; assay type: cell-based
T2 construct: host or cells: HEK293
Procedure: as §1, §2

[4] = biological target: T3, hNaV1.3 (Homo sapiens, UniProt Q9NY46); assay: Whole-cell patch-clamp, HEK293 cells stably expressing hNaV1.3; assay type: cell-based; conditions: QPatch 16x automated whole-cell patch-clamp, holding potential -60 mV, five concentrations (2 nM to 10 μM), 0.1% BSA, pH 7.4, ~22 °C; each point average of 3–11 cells
T3 construct: host or cells: HEK293
Procedure: as §1, §2

[5] = biological target: T4, hNaV1.2 (Homo sapiens, UniProt Q99250); assay: Whole-cell patch-clamp, HEK293 cells stably expressing hNaV1.2; assay type: cell-based; conditions: QPatch 16x automated whole-cell patch-clamp, holding potential -65 mV, five concentrations (2 nM to 10 μM), 0.1% BSA, pH 7.4, ~22 °C; each point average of 3–11 cells
T4 construct: host or cells: HEK293
Procedure: as §1, §2

[6] = biological target: T5, hNaV1.1 (Homo sapiens, UniProt P35498); assay: Whole-cell patch-clamp, HEK293 cells stably expressing hNaV1.1; assay type: cell-based; conditions: QPatch 16x automated whole-cell patch-clamp, holding potential -60 mV, five concentrations (2 nM to 10 μM), 0.1% BSA, pH 7.4, ~22 °C; each point average of 3–11 cells
T5 construct: host or cells: HEK293
Procedure: as §1, §2

[7] = system: nerve and muscle; assay: Nerve-to-muscle comparison, epifluorescence; assay type: in vivo, mouse
Procedure: (§3) Female athymic nude mice (4–8 weeks old, athymic-nude (outbred) (stock#:088; Envigo, USA) were allowed to acclimatize at the MSKCC vivarium for 1 week with ad libitum food and water prior to the experimental procedure. For imaging experiments, animals were sacrificed 30 min post-tail vein injection of Hs1a-FL, Hs1a/Hs1a-FL, or PBS. All animal experiments were performed in accordance with institutional guidelines and approved by the MSKCC Institutional Animal Care and Use Committee, following the NIH guidelines for animal welfare.
(§4) One group of animals was intravenously injected with Hs1a-FL (4 nmol, 45 μM of Hs1a-FL in 100 μL of PBS, n = 3). A second group of animals was injected with Hs1a and Hs1a-FL (Hs1a-FL, 45 μM, 4 nmol and Hs1a, 120 μM, 12 nmol in 100 μL PBS, n = 3) or PBS (n = 3). Animals were sacrificed 30 min post-injection and epifluorescence images obtained. Epifluorescence images of the right sciatic nerve (RSN) and left sciatic nerve (LSN) were obtained in situ from all the mice in the study. Epifluorescence images of the biodistribution included RSN, LSN, muscle, heart, kidney, liver, and brain and were acquired with an IVIS Spectrum imaging system (PerkinElmer) using a predetermined filter set (excitation = 710/45 nm, emission = 800–820 nm). […]
(§5) Statistical analyses were performed using GraphPad Prism 8. […] All p values were calculated using an unpaired t test. […]

[8] = system: mouse sciatic nerve (NaV1.7); assay: Confocal microscopy of sciatic nerve after intravenous injection; assay type: in vivo; conditions: i.v. Hs1a-FL 4 nmol (45 μM in 100 μL PBS), with or without Hs1a 12 nmol (120 μM, 3-fold molar excess); 30 min post-injection; athymic nude mice
Procedure: as §3
(§6) For the confocal microscopy experiments, 5 μm cryosections of sciatic nerve tissues embedded in optimal cutting temperature compound (OCT) were used to determine the distribution and localization of Hs1a-FL from mice previously injected with the fluorescent agent Hs1a-FL (4 nmol, 45 μM of Hs1a-FL in 100 μL of PBS), the blocking solution Hs1a/Hs1a-FL (Hs1a-FL, 45 μM, 4 nmol and Hs1a 120 μM, 12 nmol in 100 μL PBS), or 100 μL of PBS. These resected nerves were incubated with Hoechst 33342 (20 μM, 1 nmol in 50 μL of PBS) to counterstain nuclei, which were subsequently embedded in Mowiol mounting medium. Fresh tissues were counterstained with Hoechst 33342 (20 μM, 1 nmol in 50 μL of PBS) and samples placed directly on a microscope slide for detection of the fluorescence signal of the fluorescent peptide.

[9] = system: mouse sciatic nerve; assay: Epifluorescence imaging of resected sciatic nerves after intravenous injection; assay type: in vivo; conditions: 30 min post-injection
Procedure: as §3, §4, §5

[10] = Ex vivo epifluorescence biodistribution in organs; parameters: species or system mouse; conditions: 30 min post-injection
Procedure: as §3
One group of animals was intravenously injected with Hs1a-FL (4 nmol, 45 μM of Hs1a-FL in 100 μL of PBS, n = 3). A second group of animals was injected with Hs1a and Hs1a-FL (Hs1a-FL, 45 μM, 4 nmol and Hs1a, 120 μM, 12 nmol in 100 μL PBS, n = 3) or PBS (n = 3). Animals were sacrificed 30 min post-injection and epifluorescence images obtained. Epifluorescence images of the right sciatic nerve (RSN) and left sciatic nerve (LSN) were obtained in situ from all the mice in the study. Epifluorescence images of the biodistribution included RSN, LSN, muscle, heart, kidney, liver, and brain and were acquired with an IVIS Spectrum imaging system (PerkinElmer) using a predetermined filter set (excitation = 710/45 nm, emission = 800–820 nm). Autofluorescence was removed through spectral unmixing. Semiquantitative analysis of the Hs1a-FL signal was conducted by measuring the average radiant efficiency (in units of [p/s/cm^2/sr]/[μW/cm^2]) in regions of interest (ROIs) that were placed on all resected nerves and as well in all organs from the biodistribution under white light guidance.
Statistical analyses were performed using GraphPad Prism 8. Unless otherwise stated, data points represent mean values, and error bars represent standard deviations of biological replicates. All p values were calculated using an unpaired t test. Statistical significance was considered for p values < 0.05 and as follows: ns = not significant, *p < 0.05, **p < 0.01, ***p < 0.001.

[11] = system: NaV1.7; assay: Binding to NaV1.7 in vivo post-intravenous injection, blocked by excess unlabeled Hs1a; parameters: species or system mouse
Procedure: as §3
as §6, with “peptide. […]” for “peptide.”

[12] = at concentrations up to 3 μM, automated patch-clamp

T2 sequence (Q14524 whole entry): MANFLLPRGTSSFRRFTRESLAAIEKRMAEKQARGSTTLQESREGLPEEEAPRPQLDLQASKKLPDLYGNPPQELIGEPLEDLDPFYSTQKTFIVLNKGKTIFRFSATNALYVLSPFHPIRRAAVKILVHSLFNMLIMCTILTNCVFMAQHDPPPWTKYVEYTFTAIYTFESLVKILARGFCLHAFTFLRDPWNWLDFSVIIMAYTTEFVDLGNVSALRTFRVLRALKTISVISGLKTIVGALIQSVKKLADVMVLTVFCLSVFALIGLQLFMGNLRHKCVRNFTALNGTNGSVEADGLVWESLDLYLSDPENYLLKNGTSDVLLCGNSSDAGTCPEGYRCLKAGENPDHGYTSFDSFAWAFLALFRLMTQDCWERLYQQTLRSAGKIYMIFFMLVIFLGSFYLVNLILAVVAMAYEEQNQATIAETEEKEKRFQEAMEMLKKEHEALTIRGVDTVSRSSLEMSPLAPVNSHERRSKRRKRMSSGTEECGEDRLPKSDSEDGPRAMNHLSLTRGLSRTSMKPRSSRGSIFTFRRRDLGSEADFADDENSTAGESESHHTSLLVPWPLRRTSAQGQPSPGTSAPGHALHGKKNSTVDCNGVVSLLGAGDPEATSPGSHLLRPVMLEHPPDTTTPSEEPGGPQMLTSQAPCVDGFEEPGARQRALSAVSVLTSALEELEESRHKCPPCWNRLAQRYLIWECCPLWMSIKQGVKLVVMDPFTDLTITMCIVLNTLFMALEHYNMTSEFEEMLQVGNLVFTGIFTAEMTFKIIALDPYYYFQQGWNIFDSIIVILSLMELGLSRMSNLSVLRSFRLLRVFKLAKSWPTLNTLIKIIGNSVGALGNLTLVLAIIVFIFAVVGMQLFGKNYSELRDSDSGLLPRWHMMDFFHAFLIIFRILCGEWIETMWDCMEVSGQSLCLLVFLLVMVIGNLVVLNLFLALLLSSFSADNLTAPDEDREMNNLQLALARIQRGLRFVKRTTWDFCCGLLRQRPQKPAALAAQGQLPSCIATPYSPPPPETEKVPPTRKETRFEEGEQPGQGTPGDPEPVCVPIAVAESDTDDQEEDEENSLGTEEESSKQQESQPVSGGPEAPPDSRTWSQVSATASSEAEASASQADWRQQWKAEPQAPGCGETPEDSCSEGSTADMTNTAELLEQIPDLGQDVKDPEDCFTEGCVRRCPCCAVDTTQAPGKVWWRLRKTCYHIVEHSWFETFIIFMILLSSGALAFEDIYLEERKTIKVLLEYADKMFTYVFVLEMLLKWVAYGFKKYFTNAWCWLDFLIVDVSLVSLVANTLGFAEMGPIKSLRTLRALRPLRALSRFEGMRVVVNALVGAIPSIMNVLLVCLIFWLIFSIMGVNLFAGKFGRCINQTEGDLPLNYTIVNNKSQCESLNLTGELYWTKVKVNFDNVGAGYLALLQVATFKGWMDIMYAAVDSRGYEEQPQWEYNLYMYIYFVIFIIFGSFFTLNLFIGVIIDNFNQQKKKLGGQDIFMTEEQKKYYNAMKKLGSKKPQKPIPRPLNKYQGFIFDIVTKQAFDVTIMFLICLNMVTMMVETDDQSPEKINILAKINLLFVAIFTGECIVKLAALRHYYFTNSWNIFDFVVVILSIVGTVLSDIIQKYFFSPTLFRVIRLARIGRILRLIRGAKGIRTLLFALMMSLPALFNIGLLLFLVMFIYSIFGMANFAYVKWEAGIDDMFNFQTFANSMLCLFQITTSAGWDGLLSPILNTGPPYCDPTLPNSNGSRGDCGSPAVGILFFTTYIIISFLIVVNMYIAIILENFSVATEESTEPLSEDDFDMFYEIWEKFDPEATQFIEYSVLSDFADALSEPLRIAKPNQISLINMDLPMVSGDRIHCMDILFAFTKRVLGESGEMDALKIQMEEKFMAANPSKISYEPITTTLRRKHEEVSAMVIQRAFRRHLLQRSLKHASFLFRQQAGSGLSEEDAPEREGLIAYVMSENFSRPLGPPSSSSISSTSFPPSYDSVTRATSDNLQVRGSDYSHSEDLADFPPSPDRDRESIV
T1 sequence (Q07699 19-218): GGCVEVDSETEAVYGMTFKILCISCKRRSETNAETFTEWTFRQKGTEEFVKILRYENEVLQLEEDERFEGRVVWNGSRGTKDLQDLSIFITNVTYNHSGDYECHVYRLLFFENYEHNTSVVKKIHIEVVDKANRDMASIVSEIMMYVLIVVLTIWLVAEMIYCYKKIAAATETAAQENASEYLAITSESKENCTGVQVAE
T1 sequence (P35499 whole entry): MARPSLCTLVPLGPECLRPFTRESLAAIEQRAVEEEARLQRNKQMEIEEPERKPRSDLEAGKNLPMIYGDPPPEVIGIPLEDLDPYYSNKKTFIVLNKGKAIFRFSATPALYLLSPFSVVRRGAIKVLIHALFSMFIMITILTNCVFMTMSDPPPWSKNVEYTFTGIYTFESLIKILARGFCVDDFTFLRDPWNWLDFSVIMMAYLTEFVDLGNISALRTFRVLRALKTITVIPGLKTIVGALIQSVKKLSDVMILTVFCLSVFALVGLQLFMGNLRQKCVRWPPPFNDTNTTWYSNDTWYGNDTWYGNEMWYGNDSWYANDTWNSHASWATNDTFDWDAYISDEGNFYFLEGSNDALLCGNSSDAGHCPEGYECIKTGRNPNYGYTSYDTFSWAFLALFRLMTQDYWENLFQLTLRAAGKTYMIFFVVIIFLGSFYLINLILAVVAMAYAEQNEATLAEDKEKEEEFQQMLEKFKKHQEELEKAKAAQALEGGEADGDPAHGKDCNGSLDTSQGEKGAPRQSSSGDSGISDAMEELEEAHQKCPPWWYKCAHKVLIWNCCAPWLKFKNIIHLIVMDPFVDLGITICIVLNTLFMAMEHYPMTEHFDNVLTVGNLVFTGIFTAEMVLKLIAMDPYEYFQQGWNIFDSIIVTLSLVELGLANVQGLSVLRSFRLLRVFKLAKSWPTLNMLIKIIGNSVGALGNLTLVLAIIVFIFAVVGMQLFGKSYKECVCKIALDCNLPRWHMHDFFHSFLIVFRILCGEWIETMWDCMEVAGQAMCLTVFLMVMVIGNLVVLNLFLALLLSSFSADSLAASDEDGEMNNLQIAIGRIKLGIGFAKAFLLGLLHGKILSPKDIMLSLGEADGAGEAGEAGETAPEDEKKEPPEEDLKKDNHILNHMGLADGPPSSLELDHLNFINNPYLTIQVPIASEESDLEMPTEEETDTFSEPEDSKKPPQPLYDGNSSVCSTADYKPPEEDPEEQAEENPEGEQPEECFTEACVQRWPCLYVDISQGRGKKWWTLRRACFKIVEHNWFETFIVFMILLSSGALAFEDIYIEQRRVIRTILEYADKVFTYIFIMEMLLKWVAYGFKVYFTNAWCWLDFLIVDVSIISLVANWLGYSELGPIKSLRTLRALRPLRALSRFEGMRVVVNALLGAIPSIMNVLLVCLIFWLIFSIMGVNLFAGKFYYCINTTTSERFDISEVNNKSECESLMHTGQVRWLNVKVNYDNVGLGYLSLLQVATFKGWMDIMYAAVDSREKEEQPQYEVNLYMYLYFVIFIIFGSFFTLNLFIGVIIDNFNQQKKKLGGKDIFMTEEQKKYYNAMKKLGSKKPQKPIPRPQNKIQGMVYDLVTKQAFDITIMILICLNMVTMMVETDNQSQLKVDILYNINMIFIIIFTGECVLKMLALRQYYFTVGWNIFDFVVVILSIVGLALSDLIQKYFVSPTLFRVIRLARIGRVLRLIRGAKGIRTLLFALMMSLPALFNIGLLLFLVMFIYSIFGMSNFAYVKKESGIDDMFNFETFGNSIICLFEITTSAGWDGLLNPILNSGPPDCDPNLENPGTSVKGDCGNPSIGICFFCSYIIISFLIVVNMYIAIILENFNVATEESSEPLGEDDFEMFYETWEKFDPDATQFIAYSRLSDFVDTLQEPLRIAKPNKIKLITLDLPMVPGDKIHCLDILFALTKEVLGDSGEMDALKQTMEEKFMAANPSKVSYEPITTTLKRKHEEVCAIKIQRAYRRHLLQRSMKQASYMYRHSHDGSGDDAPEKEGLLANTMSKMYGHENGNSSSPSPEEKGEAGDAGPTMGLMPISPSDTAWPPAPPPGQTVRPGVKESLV

Row | Compound | IC50 ([1]; QPatch 16x automated whole-cell patch-clamp, holding potential -75 mV, five concentrations (2 nM to 10 μM), 0.1% BSA, pH 7.4, ~22 °C, each point average of 3–11 cells) | inhibition of NaV1.4 [1, 12] | affinity for neuronal sodium channels ([2]; ~22 °C) | IC50 range for neuronal NaV channels ([2]; NaV1.1, NaV1.2, NaV1.3, NaV1.6, NaV1.7) | IC50 ([3]; QPatch 16x automated whole-cell patch-clamp, holding potential -105 mV, five concentrations (2 nM to 10 μM), 0.1% BSA, pH 7.4, ~22 °C, each point average of 3–11 cells) | inhibition of NaV1.5 [3, 12] | IC50 [4] | IC50 [5] | IC50 [6] | nerve-to-muscle contrast ([7]; epifluorescence visualization of sciatic mouse nerves, abstract statement) | nerve-to-muscle ratio ([7]; i.v. Hs1a-FL 4 nmol with or without Hs1a 12 nmol (block), 30 min post-injection, epifluorescence, mean ± SD, PBS 2.90 ± 2.76) | presence of Hs1a-FL signal in sciatic nerve by confocal microscopy [8] | visibility / accumulation in resected sciatic nerves ([9]; i.v. 4 nmol Hs1a-FL alone, epifluorescence) | radiant efficiency of resected sciatic nerves ([9]; i.v. Hs1a-FL 4 nmol (45 μM in 100 μL PBS), with or without Hs1a 12 nmol (120 μM), IVIS, ex 710/45 nm, em 800–820 nm, mean ± SD, n = 3 mice, Hs1a-FL vs co-injection unpaired t test p < 0.001) | radiant efficiency, brain ([10]; i.v. 4 nmol in 100 μL PBS, IVIS, ex 710/45 nm, em 800–820 nm, mean ± SD, n = 3, PBS group 0.001 ± 0.0005 × 10^7) | radiant efficiency, liver ([10]; i.v. 4 nmol in 100 μL PBS, IVIS, ex 710/45 nm, em 800–820 nm, mean ± SD, n = 3, PBS group 0.002 ± 0.001 × 10^7) | radiant efficiency, kidney ([10]; i.v. 4 nmol in 100 μL PBS, IVIS, ex 710/45 nm, em 800–820 nm, mean ± SD, n = 3, PBS group 0.005 ± 0.004 × 10^7) | liver accumulation ([10]; mouse, i.v. 4 nmol) | binding to NaV1.7 on the surface of human and mouse nerves ([11]; abstract statement) | binding to NaV1.7 channels in vivo ([11]; post-intravenous injection, mouse, blocked by excess dose of unlabeled Hs1a)
1 | CC(C)C[C@H](NC(=O)[C@H](CCCCN)NC(=O)CNC(=O)[C@H](CCCCN)NC(=O)[C@@H]1CSSC[C@@H]2NC(=O)[C@H](CCCCN)NC(=O)[C@H](CC(=O)O)NC(=O)[C@H](CC(N)=O)NC(=O)[C@H](CCCCN)NC(=O)[C@@H]3CCCN3C(=O)[C@H](CC(N)=O)NC(=O)[C@@H]3CSSC[C@H](NC(=O)[C@H](C(C)C)NC(=O)[C@H](CC(C)C)NC(=O)[C@H](CC(N)=O)NC(=O)[C@H](C)NC(=O)[C@H](CSSC[C@H](NC(=O)[C@H](CC(=O)O)NC(=O)[C@H](CC(N)=O)NC(=O)CN)C(=O)N[C@@H](CC(C)C)C(=O)NCC(=O)N[C@@H](Cc4ccccc4)C(=O)N[C@@H](Cc4c[nH]c5ccccc45)C(=O)N[C@@H](CO)C(=O)N[C@@H](C)C(=O)N3)NC2=O)C(=O)N[C@@H](CO)C(=O)N[C@@H](CO)C(=O)N[C@@H](CCCCN)C(=O)N[C@@H](Cc2c[nH]cn2)C(=O)N[C@@H](CCCCN)C(=O)N[C@@H](Cc2c[nH]c3ccccc23)C(=O)N1)C(=O)O [Hs1a] | > 3000 nM | did not inhibit | low nanomolar affinity | low nanomolar range | > 3000 nM | did not inhibit | 107 nM | 82.2 nM | 19.4 nM | – | – | – | – | – | – | – | – | – | – | –
2 | Cy7.5@GNDCLGFWSACNPKNDKCCANLVCSSKHKWCKGKL (disulfide) [Hs1a-FL, NIR-labeled version of Hs1a, Hs1a conjugated to Cy7.5 dye] | – | – | – | – | – | – | – | – | – | favorable nerve-to-muscle contrast | 4.83 ± 8.73 and ~ 4 | confirmed the presence of Hs1a-FL signal | clearly visible | 1.6 ± 0.3 × 10^5 [p/s/cm^2/sr]/[μW/cm^2] | 0.2 ± 0.1 × 10^7 [p/s/cm^2/sr]/[μW/cm^2] | 3.0 ± 2.0 × 10^7 [p/s/cm^2/sr]/[μW/cm^2] | 1.4 ± 1.1 × 10^7 [p/s/cm^2/sr]/[μW/cm^2] | high liver accumulation | specific and stable binding | specifically bind to NaV1.7 channels in vivo
